Data as given in PubChem BioAssay (NCI).
Where “and” joins values, the source holds several entries; their conditions need not be identical. Equal values may be shown once.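 Five concentrations, 48 hours, 96-well plates. GI50 marks 50% less growth. At the TGI there is no net growth.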

Experiments:
Experiment in all cases: NCI tumour cell line growth inhibition, 48 h
TK-10 renal = test system: TK-10 renal
SNB-75 CNS = test system: SNB-75 CNS
OVCAR-4 ovarian = test system: OVCAR-4 ovarian
SK-MEL-5 melanoma = test system: SK-MEL-5 melanoma
SF-295 CNS = test system: SF-295 CNS
HCT-116 colon = test system: HCT-116 colon
SNB-19 CNS = test system: SNB-19 CNS
CAKI-1 renal = test system: CAKI-1 renal
UO-31 renal = test system: UO-31 renal
786-0 renal = test system: 786-0 renal

Row | Compound | GI50 (TK-10 renal) | TGI (TK-10 renal) | GI50 (SNB-75 CNS) | TGI (SNB-75 CNS) | GI50 (OVCAR-4 ovarian) | TGI (OVCAR-4 ovarian) | GI50 (SK-MEL-5 melanoma) | TGI (SK-MEL-5 melanoma) | GI50 (SF-295 CNS) | TGI (SF-295 CNS) | GI50 (HCT-116 colon) | TGI (HCT-116 colon) | GI50 (SNB-19 CNS) | TGI (SNB-19 CNS) [µM] | GI50 (CAKI-1 renal) | TGI (CAKI-1 renal) | GI50 (UO-31 renal) | TGI (UO-31 renal) | GI50 (786-0 renal) | TGI (786-0 renal)
1 | C=CCn1c(=O)c2cnc(Nc3ccc(N4CCN(C)CC4)cc3)nc2n1-c1cccc(C(C)(C)O)n1 | 0.1 µM and 0.31 µM | 5.94 µM and > 10 µM | 1.44 µM and 0.717 µM | 8.68 µM and 6.37 µM | 0.373 µM and 0.507 µM | 28.7 µM and > 10 µM | 0.231 µM and 0.442 µM | 1.04 µM and 7.76 µM | 0.48 µM and 0.589 µM | 14.4 µM and > 10 µM | 0.321 µM and 0.328 µM | 11.4 µM and > 10 µM | 1.17 µM and 0.526 µM | > 100 | 0.24 µM and 0.152 µM | 16.7 µM and > 10 µM | 0.338 µM and 0.28 µM | 7.47 µM and > 10 µM | 0.377 µM and 0.362 µM | 9.71 µM and > 10 µM
2 | C[C@H]1c2ccccc2CN1CCCOc1cc2c(cc1OCC1CC1)C1(CCCC1)C(N)=N2 | 2.07 µM | 8.26 µM | 0.994 µM | 4.86 µM | 1.83 µM | 7.42 µM | 0.912 µM | 1.69 µM | 1.89 µM | 6.71 µM | 0.95 µM | 2.26 µM | 5.65 µM | 11.8 | 1.79 µM | 7.65 µM | 1.02 µM | 3.04 µM | 2.06 µM | 8.2 µM
3 | Nc1n[nH]c2ccc([C@@H]3Nc4cc5[nH]ncc5cc4[C@H]4C5CCC(C5)[C@@H]34)cc12 (some centres not stated) | 17.2 µM | > 95.9 µM | 0.27 µM | 22.9 µM | 9.3 µM | > 100 µM | 0.493 µM | 6.57 µM | 0.257 µM | 19.2 µM | 0.416 µM | > 100 µM | 0.436 µM | > 100 | 0.355 µM | > 39.2 µM | 0.626 µM | > 100 µM | 0.709 µM | > 66.7 µM
4 | CC(=O)C12C[C@](C#N)(N3CCCCCC3)C1C=Cc1ccccc12 (some centres not stated) |  | > 100 µM |  | > 100 µM |  | > 100 µM |  | > 100 µM |  | > 100 µM |  | > 100 µM |  | > 100 |  | > 100 µM |  | > 100 µM |  | > 100 µM
5 | C/C(=C\Cc1cc(O)ccc1O)CCc1c(C)c(O)c(O)c(C=O)c1C |  | > 100 µM |  | > 100 µM |  | > 100 µM |  | 30.2 µM |  | 91.5 µM |  | 40.3 µM |  | > 100 |  | 85.6 µM |  | 98.8 µM |  | 62.2 µM
6 | C[C@@H]1COCCN1c1cc(-c2ccnn2C)c2ccnc(-c3ccn[nH]3)c2n1 | 0.0715 µM and 0.313 µM | 1.57 µM and 7 µM | 0.087 µM and 0.219 µM | 0.596 µM and 1.8 µM | 0.109 µM and 0.181 µM | 1.74 µM | 0.222 µM and 0.286 µM | 0.766 µM and 2.52 µM | 0.057 µM and 0.11 µM | 0.648 µM and 1.15 µM | 0.159 µM and 0.228 µM | 16.3 µM and > 59 µM | 0.23 µM and 0.31 µM | > 100 | 0.125 µM and 0.223 µM | 0.9 µM and 1.8 µM | 0.0741 µM and 0.152 µM | 0.792 µM and 1.92 µM | 0.0406 µM and 0.079 µM | 0.483 µM
7 | CCN(C(=O)CN1CCN(c2cc3c(cc2F)c(=O)c(C(=O)O)cn3CC)CC1)c1nc(-c2ccccc2)cs1 | 0.408 µM | > 100 µM | 0.32 µM | > 100 µM | 0.347 µM | > 100 µM | 0.238 µM | 0.551 µM | 0.235 µM | 0.746 µM | 0.378 µM | > 100 µM | 0.451 µM | > 100 | 0.312 µM | > 100 µM | 0.266 µM | > 100 µM | 0.384 µM | > 100 µM
8 | NCCC(=O)NC(Cc1cnc[nH]1)C(=O)O (configuration not stated) |  | > 100 µM |  | > 100 µM |  | > 100 µM |  | > 100 µM |  | > 100 µM |  | > 100 µM |  | > 100 |  | > 100 µM |  | > 100 µM |  | > 100 µM
9 | CC/C=C\C/C=C/C=C1/C(=O)C=C[C@@H]1C/C=C\CCCC(=O)OC | 4.13 µM | 15.4 µM | 25 µM | > 100 µM | 4.24 µM | 17.3 µM | 1.99 µM | 4.05 µM | 3.5 µM | 14 µM | 0.631 µM | 2.43 µM | 5.06 µM | 19.3 | 3.22 µM | 10.7 µM | 1.64 µM | 3.6 µM | 2.71 µM | 6.91 µM
10 | COC/N=C(/N)NC#N |  | > 100 µM |  | > 100 µM |  | > 100 µM |  | > 100 µM |  | > 100 µM |  | > 100 µM |  | > 100 |  | > 100 µM |  | > 100 µM |  | > 100 µM
11 | COc1cc2c(cc1-c1coc3cc(OCC=C(C)C)ccc3c1=O)OCO2 |  | > 100 µM |  | > 100 µM |  | > 100 µM |  | 36.9 µM |  | > 100 µM |  | 51.4 µM |  | > 100 |  | 58.5 µM |  | > 100 µM |  | 61.8 µM
12 | C=C(Br)CNCC(=C)Br |  | > 100 µM |  | > 100 µM |  | > 100 µM |  | > 100 µM |  | > 100 µM |  | > 100 µM |  | > 100 |  | > 100 µM |  | > 100 µM |  | > 100 µM
13 | CSCCCNC(=O)c1csc(-c2csc(CCNC(=O)CNC(=O)CNC(=O)CNC(=O)OC(C)(C)C)n2)n1 |  | > 100 µM |  | > 100 µM |  | > 100 µM |  | > 100 µM |  | > 100 µM |  | > 100 µM |  | > 100 |  | > 100 µM |  | > 100 µM |  | > 100 µM
14 | CCOC1OC(=O)[C@H]2[C@@H]1[C@@H]1CC[C@H]2O1 (some centres not stated) | > 100 µM | > 100 µM |  | > 100 µM | > 100 µM | > 100 µM | > 100 µM | > 100 µM | > 100 µM | > 100 µM | > 100 µM | > 100 µM | > 100 µM | > 100 | > 100 µM | > 100 µM | > 100 µM | > 100 µM | > 100 µM | > 100 µM
15 | O=C1CSC(c2ccccc2O)N1c1nnc(Cn2ccnc2)o1 (configuration not stated) | 14.1 µM | > 100 µM | 11.6 µM | > 100 µM | 4.51 µM | 37.2 µM | 7.4 µM | 20.2 µM | 3.11 µM | > 100 µM | 9.86 µM | 43.7 µM |  |  | 2.19 µM | 10.2 µM | 4.35 µM | > 100 µM | 7.8 µM | > 100 µM
